Data reported in patent publication US20190119196A1, “COMPOUNDS FOR THE TREATMENT OF […]” (priority 2016, published 2019).
Where a name gives a salt, the structure may show the parent alone. Read-outs that look alike come from different tables or passages of the source.

Legend:
L6-myotubes [1] = experiment: Glucose uptake in differentiated L6-myotubes (3H-2-deoxy-glucose); format: cell-based; settings: read-out: Biological example 1: glucose uptake, % increase over the basal level
Procedure: (§1) L6-myoblasts were grown in Dulbecco's Modified Eagle's Medium (DMEM) containing 4,5 g/I glucose supplemented with 10% fetal bovine serum, 2 mM L-Glutamine, 50 U/ml penicillin, 50 μg/ml streptomycin and 10 mM HEPES. Cells were plated at 1×10^5 cells per ml in 24-well plates. After reaching 90% confluence the cells were grown in medium containing 2% FBS for 7 days where upon cells differentited into myotubes.
Differentiated L6-myotubes were serum-starved over night in medium containing 0.5% fatty-acid free BSA and stimulated with agonist, […], glucose free medium or PBS and another portion of agonist was added to glucose free medium. […] Cell lysate was mixed with scintillation buffer (Emulsifier Safe, Perkin Elmer and radioactivity detected in a β-counter (Tri-Carb 2800TR, Perkin Elmer). The numerical values in the table are given as % increase over the basal level.

L6-myotubes [2] = experiment: Measurement of intracellular cAMP levels (alpha screen cAMP kit); format: cell-based; settings: agonist final concentration 1×10^−5, 15 min; differentiated cells; 1 mM IBMX
Procedure: as §1
Differentiated cells were serum-starved over night and stimulated with agonist, final concentration 1×10−^5, for 15 min in stimulation buffer (HBSS supplemented with 1% BSA, 5 mM HEPES and 1 mM IBMX, pH 7,4) The medium was then aspirated and to end the reaction 100 μL of 95% EtOH was added to each well of a 24-well plate and cells were kept in −20° C. over night. The EtOH was let to evaporate and 500 μL of lysis buffer (1% BSA, 5 mM HEPES and 0,3% Tween-20, pH 7.4) was added to each well before put in −80° C. for 30 min and then kept in −20° C. Intracellular cAMP levels were detected using an alpha screen cAMP kit (6760635D from Perkin Elmer). The numerical values in the table are given as % increase over the basal level.

human β2-adrenoceptor = molecular target: T1, human β2-adrenoceptor (Homo sapiens, UniProt P07550); experiment: 3H-CGP 12177 whole cell β2 binding
T1 construct: expressed in transfected cells
Procedure: ^3H-CGP 12177 Whole Cell β2 Binding
Chinese Hamster Ovary (CHO) cells stably expressing the human β2-adrenoceptor were grown in Dulbecco's modified Eagle's medium nutrient mix F12 (DMEM/F12) containing 10% fetal calf serum and 2 mM L-glutamine in a 37° C. humidified 5% CO2:95% air atmosphere. The cells were seeded (100 000 cells/mL) into white-sided, clear-bottomed 96-well isoplates and allowed to grow to confluence for the following day's experiment. Next day, the media was removed from each well of the isoplate. Aliquots of the test compounds (10^−2 M in DMSO) were diluted in DMEM/F12 containing 2 mM L-glutamine (serum-free media) to final concentration ranges of 10^−4 M to 10^−10 M and added to each well. The radioligand ^3H-CGP 12177 was diluted in the same medium (˜1 nM final well concentration) and added to each well. Propranolol and CGP 12177 (10 μM) were used to measure non-specific binding. The cells were incubated for 2 hours at 37° C. After incubation, the cells were washed twice by the addition and removal of 200 μL ice-cold phosphate-buffered saline (PBS). Cells were then lysed with Optiphase Supermix cocktail (100 μL/well) and a clear sealant top was applied to the plate. The plate was left overnight in the dark at room temperature, centrifuged (1000 rpm, 1 min) and measured in a MicroBeta2 Microplate Counter (Perkin Elmer) (10 minutes pre-incubation, 2 min counts/well).
All data points on each binding curve were measured in duplicates. Each 96-well plate also contained four determinations of total and non-specific binding. Non-specific binding was determined in the presence of CGP 12177 and propranolol (10 μM). […] All data points are measured in counts per minute (CPM) and converted into disintegrations per minute (DPM) by dividing the count rate (CPM) with the counting efficiency of the instruments detector (57%). The numerical values were obtained by using the GraphPad Prism 7 programme and are given as -log K (pKi) in the table.

[3] = agonist final concentration 1×10^−5, differentiated L6-myotubes, 50 nM 3H-2-deoxy-glucose
[4] = CHO cells stably expressing the human β2-adrenoceptor, ~1 nM 3H-CGP 12177, 2 hours at 37° C., read-out: Biological example 3: -log K (pKi), 3H-CGP 12177 whole cell β2 binding (converted)

T1 sequence (P07550 whole entry): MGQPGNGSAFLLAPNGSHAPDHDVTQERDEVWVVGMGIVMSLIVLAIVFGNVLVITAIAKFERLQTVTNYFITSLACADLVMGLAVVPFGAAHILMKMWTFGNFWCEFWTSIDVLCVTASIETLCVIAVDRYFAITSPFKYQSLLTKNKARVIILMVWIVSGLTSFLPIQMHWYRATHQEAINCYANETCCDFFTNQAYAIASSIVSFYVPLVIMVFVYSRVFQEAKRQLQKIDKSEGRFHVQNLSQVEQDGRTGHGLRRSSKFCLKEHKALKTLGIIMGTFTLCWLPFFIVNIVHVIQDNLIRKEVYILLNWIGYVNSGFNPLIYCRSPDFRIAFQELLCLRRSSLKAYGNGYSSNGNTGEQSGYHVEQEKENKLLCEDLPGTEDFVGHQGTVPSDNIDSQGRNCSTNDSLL

Compound	activation (L6-myotubes [1]; [3]) [%]	Biological example 2: intracellular cAMP levels, % increase over the basal level (L6-myotubes [2]) [%]	Ki (human β2-adrenoceptor; [4]) [µM]	activation (L6-myotubes [1]) [%]	Ki (human β2-adrenoceptor) [µM]
Oc1ccc(C(O)CNCCC2CC2)cc1 (stereo not drawn) [Example 22, 4-(2-((2-Cyclopropylethyl)amino)-1-hydroxyethyl)phenol]	30	20	12.6		
CCCC(C)NCC(O)c1ccc(O)cc1 (stereo not drawn) [Example 8, 4-(1-Hydroxy-2-(pentan-2-ylamino)ethyl)phenol acetate]		15	20	12	
CCCC(C)NC(C)C(O)c1ccc(O)cc1 (mixture of isomers) [Example 13, 4-(1-Hydroxy-2-(pentan-2-ylamino)propyl)phenol acetate]	42	−1	15.8		
CCCCNCC(O)c1cccc(O)c1 (stereo not drawn) [Example 14, 3-(2-(Butylamino)-1-hydroxyethyl)phenol]	17	20	15.8		
Oc1ccc(C(O)CNCC2CCCCC2)cc1 (stereo not drawn) [Example 6, 4-(2-((Cyclohexylmethyl)amino)-1-hydroxyethyl)phenol]	23	3	10		
CCCCNCC(O)c1cc(Cl)c(O)c(Cl)c1 (stereo not drawn) [Example 26, 4-(2-(Butylamino)-1-hydroxyethyl)-2,6-dichlorophenol]		−0.3	25.1	10	
CCCCNCC(O)c1cc(Cl)c(N)c(Cl)c1 (stereo not drawn) [Example 29, 1-(4-Amino-3,5-dichlorophenyl)-2-(butylamino)ethan-1-ol trifluoroacetate]		222		48	0.316
